Data on one compound can be found in patent publication US20160235749A1, “MICRO-PARTICULATED NANOCAPSULES CONTAINING LOPINAVIR WITH ENHANCED ORAL BIOAVAILABILITY AND EFFICACY” (priority 2015, published 2016).

A short description of data set [1]: LPV solubility test in 0.1% Tween 80. The following applies: 0.1% Tween 80 solution, aqueous with cosolvent or surfactant or cyclodextrin, thermodynamic from solid; 0.1% Tween 80, pH 7.4, 37° C., 3 h incubation. It is filed as physicochemical. The protocol: A solubility test was performed prior to the in-vitro release profile experiment to ensure that sink conditions would prevail by adding 10 mg LPV to 10 ml of 0.1% Tween 80 pre-warmed to 37° C. in a beaker. The pH was adjusted to 7.4 and the Tween solution was kept at 37° C. and rotated at 150 rpm for 3 h. Then, 5 ml aliquots were taken and filtered using a 0.45 μm PVDF filter and diluted with methanol to a final dilution factor of 10.

A short description of data set [2]: LPV in-vitro release profile experiment. The format is physicochemical. To be noted: 0.1% Tween 80 release medium. The protocol:
LPV in-vitro release kinetic experiments were carried out using the apparatus (VanKel VK7000 with a VK […] pump) comprised of six vessels containing 300 ml of 0.1% Tween 80 at 37° C. with USP paddles rotating at a speed of 50 rpm. The three formulations (F[I]-F[III]) were added to the different vessels at a LPV quantity equivalent to maintain sink conditions (10% of the pre-determined solubility). […] The samples were filtered using 0.45 μm PVDF filter and 500 μl from the filtrate was diluted in 500 μl methanol. These samples were comprised of free and encapsulated LPV, since LPV NCs diameter size is about 200 nm and the NCs can diffuse via 0.45 μm membrane pores. The remaining filtrate was then transferred to diafiltration membrane vivaspin 6 (MWCO 300,000 purchased from Sartorius Stedim Biotech) and centrifuged for 15 min at 4000 rpm. […] All samples were analyzed using HPLC. […] The graphs display both the total amount of LPV released from the MCPs, as free dissolved molecules and the LPV molecules still entrapped in the NCs, as detected following filtration of the dissolution samples through 0.45 μm PVDF filters (dimond-shaped points), as well as the free dissolved LPV molecules fraction only, as detected following a second filtration using 300,000 MW cut off vivaspin membranes which retained the NCs (square points). […]

Data set [3] in a line: Pharmacokinetic studies in rats (LPV plasma levels by LC-MS/MS). The format is in vivo. The following applies: male, Sprague-Dawley, rat. The protocol:
Sprague-Dawley male rats weighing 270-300 g were used and were separated randomly into seven groups with 4-8 animals per group to evaluate the biofate of LPV in different formulations. The animals were housed in SPF conditions, fasted overnight (12-14 h prior to the experiment) with free access to water. The animals were given a dose of 10 mg/kg LPV with or without RTV, always at the same ratio as the Kaletra® administered orally, using gavage. The groups were orally administered according to the following experimental conditions: 1 ml of Kaletra® oral solution (LPV 80 mg/RTV 20 mg/ml) prepared by diluting the purchased commercial solution with 1:1:1 ethanol:propylene glycol:DDW to a concentration of LPV 3 mg/RTV 0.75 mg/ml; and microparticulate formulations, F[I]-F[III] prepared by dispersing the NCs embedded in MCPs in DDW to the final concentration of 40 mg/ml. Blood samples (400-500 μl) were withdrawn from the tail vein at 0, 0.5, 1, 2, 4, 8, 12 and 24 h. Saline solution was given to the animals after 30 min and then again after 3 h. The blood samples were collected in heparin containing tubes. The samples were immediately centrifuged at 10,000 rpm for 5 min, after which 200-300 μl of plasma samples were transferred to new tubes and stored at −80° C. until further analysis by LC-MS/MS as described below.
The blood samples were treated by protein precipitation in methanol, following 15 min centrifuge at 10,000 rpm. 25 ng of quinoxaline (QX) dissolved in methanol were added to each sample, as an internal standard. The supernatant layer was collected and the samples were injected into an LC-MS/MS device under the following conditions: using a Phenomenex Kenetex column (RP-C18, 50×2.1 mm, 2.6 μm, 100 A) in gradient mode; the mobile phase consisted of A=methanol/formic acid 99.9/0.1 and B=water/formic acid 99.9/0.1; the A:B ratio was 58:42 at t=0 min, during the first 1.5 min the ratio changed gradually to A:B 80:20 and remained steady until 2.1 min. […] The flow rate was maintained at 0.35 ml/min, and the column temperature was maintained at 35° C. LC-MS/MS analysis was performed with a thermo scientific Accela HPLC system coupled with a TSQ Quantum Access MAX detector in positive ionization mode. Detection and quantification were carried out by multiple-reaction monitoring with transitions from m/z 629.3 to 156 for LPV and from m/z 313.1 to 246 for QX. The tested samples were quantified against a calibration curve in the range of 0-100 ng/ml.
The change in LPV plasma concentrations following intravenous (i.v.) administration of LPV alone and combined with RTV in an aqueous solution and the pharmacokinetic (PK) profile of LPV following oral administration of various formulations is depicted in FIG. 10. […] The absolute bioavailability (F) of LPV at all dosage forms was calculated relative to the AUC (area under the curve) yielded by i.v. administration of LPV and RTV at the ratio of 4:1 (F=1.0) since the same combination of LPV and RTV, when administered orally, is considered the standard of PI care for HIV-linfected patients.

Test in data set [4]: as above
The format is in vivo. To be noted: male, Sprague-Dawley, rat, oral, 10 mg/kg, read-out: absolute bioavailability compared to i.v. LPV solution.

[5] abbreviates: plasma, rats, oral, 10 mg/kg LPV.

Usually solubility stands for the concentration that dissolves in the medium under given conditions. The term AUC denotes the area under the concentration-time curve, a measure of exposure. As a reminder, the clearance is the rate of elimination divided by the concentration. The half-life is the time needed for the level to fall by half in the phase considered. As a reminder, the bioavailability is the share of a dose that reaches the circulation, judged against a reference dose that is usually intravenous.

Values after ≈ are worked out from the molar mass of the structure shown. Read-outs that look alike come from different tables or passages of the source.

On to `Cc1cccc(C)c1OCC(=O)N[C@@H](Cc1ccccc1)[C@@H](O)C[C@H](Cc1ccccc1)NC(=O)[C@H](C(C)C)N1CCCNC1=O` [LPV, (2S)—N-[(2S,4S,5S)-5-[2-(2,6-dimethylphenoxy)acetamido]-4-hydroxy-1,6-diphenylhexan-2-yl]-3-methyl-2-(2-oxo-1,3-diazinan-1-yl)butanamide], for which the concentration in solution in data set [1] (solubility at 3 h) came to 72.7 µg/mL (≈ 116 µM). In addition, the “LPV solubility at pH 1.2” value in data set [2] is on record as “low solubility below HPLC detection limit”. For the same compound, the “decrease in Cmax compared to Kaletra® oral solution” value in data set [3] (in vivo, po) was determined as 3 fold. Besides, the AUC in data set [3] (plasma, iv, rats, 10 mg/kg LPV) was found to be 8000 ± 1220 ng·h/mL; in data set [3] (setting [5]) it was 1910 ± 324 ng·h/mL. In addition, the clearance in data set [3] (plasma, iv, rats, 10 mg/kg LPV) was 21.1 mL/min/kg. The half-life in data set [3] (plasma, iv, rats, 10 mg/kg LPV) is 1.2 ± 0.2 h; in data set [3] (setting [5]), 4.8 ± 0.9 h. The Cmax in data set [3] (plasma, iv, rats, i.v., 10 mg/kg LPV, read-out: Cmax (extrapolated plasma concentration at T0)) is 2780 ± 203 ng/mL; in data set [3] (plasma, rats, oral, 10 mg/kg LPV, read-out: Cmax) it was 780 ± 246 ng/mL. Moreover, the bioavailability in data set [3] (plasma, oral, 10 mg/kg, rats, oral, read-out: absolute bioavailability compared to LPV:RTV 4:1 i.v.) amounted to 5%; in data set [4], 24%.
